Our source for the IC50 and viability, T/C values is PubChem BioAssay AID1963851 (Molecular Pharmacology Branch, DTP, NCI, 2024).

“And” between values parts separate entries of the source, which are not always exact repeats. Equal values may be shown once.

A word on the IC50: it is the point on the concentration scale where inhibition reaches its midpoint. A word on the viability, T/C: it is the result in the treated group divided by that in the control group, in per cent.

The experiment deals with 188146-221-R-J1-PDC complex spheroid viability. The experiment can be described thus: Anticancer human tumor 188146-221-R-J1-PDC patient-derived colon adenocarcinoma cell line growth inhibition [POLQ]. The settings on record: for viability, T/C: stronger effect = lower value. As for the experimental part:
Multicellular complex tumor spheroid response to Polymerase (POL) inhibitors (novobiocin, ART-558, RP6685) in combination with a variety of drugs and investigational agents in selected tumor cell lines
The POL inhibitors (novobiocin, ART-558, and RP6685) were evaluated both individually and in combination with standard of care and investigational anticancer small molecules within a complex spheroid model of solid tumors. . Complex spheroids include a stromal component modeled by human endothelial cells (HUVEC) and fibroblasts modeled by human mesenchymal stem cells (MSCs). The concentration ranges selected for each drug and investigational agent were based upon clinically achievable concentrations if the clinical Cmax of the agent was known.
Compounds. The drugs and investigational agents: novobiocin (NSC847541), ART-558 (NSC835418), RP-6685 (NSC848927), peposertib (NSC802822), ceralasertib (NSC780249), elimusertib (NSC800525), camonsertib (NSC841442), AZD-1390 (NSC803789), olaparib (NSC753686), talazoparib (NSC767125), rucaparib (NSC756644), sotorasib (NSC818433), MRTX-1133 (NSC836407), SN-38 (NSC673596), topotecan (NSC609699), epotoside (NSC141540), doxorubicin (NSC123127), gemcitabine (NSC613327), 5-fluorouracil (NSC19893), paclitaxel (NSC125973), vemurafenib (NSC761431), MSA-2 (NSC828583), SN-011 (NSC837082), adavosertib (NSC754352), prexasertib (NSC758257), carboplatin (NSC241240) and oxaliplatin (NSC266046), were obtained from the National Cancer Institute (NCI) Developmental Therapeutics Program Chemical Repository (21). The FDA-approved anticancer drug set is available from the Developmental Therapeutics Program at https://dtp.cancer.gov/organization/dscb/obtaining/. […] The stock solutions were prepared in dimethyl sulfoxide (DMSO, Sigma-Aldrich, St. Louis, MO, cat. D2650), except for the platinum compounds which were prepared in saline (Quality Biological, Gaithersburg, MD, cat. 114-055-101), at 800-fold the tested concentration and stored at -70 degrees C prior to their use. All drugs and investigational agents were tested over a range starting from a high concentration at or near the clinical Cmax and decreasing in half-log increments. If the clinical Cmax for an agent had not been determined, the highest concentration tested was 10 microM, except for SN-38, which was tested at a high concentration of 1 microM.
Cell Culture. All cells were maintained in an incubator at 37 degrees C and 5% CO2 with 95% humidity. The PDC lines were cultured according to standard operating procedures established by the NCI PDMR (https://pdmr.cancer.gov). Table 3 of the manuscript, lists the cell lines along with the number of the three cell types plated to form the mct-spheroids and media for tumor cell growth. After thawing, all PDC lines, except 997537-175-T-J1-PDC and 415267-285-R-J2-PDC, were cultured in Matrigel-coated flasks prepared with a working solution of 1X Ham's F-12 nutrient mix, without supplementation (Thermo Fisher Scientific, cat. 11765054), 100 U/mL penicillin-streptomycin (Thermo Fisher Scientific, cat. 15140122), and 2.5% Matrigel (Corning Inc., Corning, NY, cat. 354248) for the first three passages. The two PDC lines 997537-175-T-J1-PDC and 415267-285-R-J2-PDC were cultured on uncoated flasks. The 857933-349-R-J2-PDC line was cultured in 6C/Colon 1B media containing advanced DMEM/F-12 (Thermo Fisher Scientific, cat. 12634028), 10 mM HEPES (Thermo Fisher Scientific, cat. 15630080), 1X GlutaMAX supplement (Thermo Fisher Scientific, cat. 35050061), 0.1 mg/mL primocin (InvivoGen, San Diego, CA, cat. ant-pm-2), 10% defined fetal bovine serum, heat inactivated (HyClone Laboratories Inc., Logan, UT, cat. SH30070.03HI), 50% L-WRN conditioned media (ATCC, cat. CRL-3276), 1.25 mM N-Acetyl-L-cysteine (Sigma-Aldrich, cat. A9165), 10 mM nicotinamide (Sigma-Aldrich, cat. N0636), 1X B-27 supplement (Thermo Fisher Scientific, cat. 17504044), 1X N-2 supplement (Thermo Fisher Scientific, cat. […]
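Also: spheroids exposed to compounds for seven days.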

With `CC(=O)O[C@H]1C(=O)[C@@]2(C)[C@H]([C@H](OC(=O)c3ccccc3)[C@]3(O)C[C@H](OC(=O)[C@H](O)[C@@H](NC(=O)c4ccccc4)c4ccccc4)C(C)=C1C3(C)C)[C@]1(OC(C)=O)CO[C@@H]1C[C@@H]2O` + Cc1cccc(N(C)C(=O)C2C(O)CCN2c2nc(C)cc(C(F)(F)F)c2C#N)c1, the IC50 is, setting by setting: (curve of first compound, second compound 0.0316 µM) 0.0148 µM; (curve of first compound, second compound 0.1 µM) 0.0134 µM; (curve of first compound, second compound 0.316 µM) 0.0113 µM; (curve of first compound, second compound 1 µM) 0.0135 µM; (curve of first compound, second compound 3.16 µM) 0.00998 µM; (curve of first compound, second compound 10 µM) 0.00995 µM. In addition, the viability, T/C reads like this: (second compound 0.0316 µM, first compound 0.00949 µM) 69%; (second compound 0.0316 µM, first compound 0.03 µM) 20.6%; (second compound 0.0316 µM, first compound 0.0949 µM) 11.7%; (second compound 0.0316 µM, first compound 0.3 µM) 12.8%; (second compound 0.0316 µM, first compound 0.949 µM) 13.3%; (second compound 0.0316 µM, first compound 3 µM) 13.3%. Also, the viability, T/C by setting is: (second compound 0.1 µM, first compound 0.00949 µM) 61.8%; (second compound 0.1 µM, first compound 0.03 µM) 23.3%; (second compound 0.1 µM, first compound 0.0949 µM) 12%; (second compound 0.1 µM, first compound 0.3 µM) 11.6%; (second compound 0.1 µM, first compound 0.949 µM) 12.8%; (second compound 0.1 µM, first compound 3 µM) 12.5%. Also, the viability, T/C (second compound 0.316 µM, first compound 0.00949 µM) is 55%; the viability, T/C (second compound 0.316 µM, first compound 0.03 µM) is 22.4%; the viability, T/C (second compound 0.316 µM, first compound 0.0949 µM) was 13.6%; the viability, T/C (second compound 0.316 µM, first compound 0.3 µM) is 12.6%; the viability, T/C (second compound 0.316 µM, first compound 0.949 µM) is 13.3%; the viability, T/C (second compound 0.316 µM, first compound 3 µM) is 11.6%. Besides, the viability, T/C by setting is: (second compound 1 µM, first compound 0.00949 µM) 63.3%; (second compound 1 µM, first compound 0.03 µM) 19.4%; (second compound 1 µM, first compound 0.0949 µM) 13.4%; (second compound 1 µM, first compound 0.3 µM) 11%; (second compound 1 µM, first compound 0.949 µM) 13%; (second compound 1 µM, first compound 3 µM) 13.8%. Besides, the viability, T/C runs as follows: (second compound 3.16 µM, first compound 0.00949 µM) 51.5%; (second compound 3.16 µM, first compound 0.03 µM) 17.5%; (second compound 3.16 µM, first compound 0.0949 µM) 14.1%; (second compound 3.16 µM, first compound 0.3 µM) 12.1%; (second compound 3.16 µM, first compound 0.949 µM) 13.2%; (second compound 3.16 µM, first compound 3 µM) 16.4%. In addition, the viability, T/C (second compound 10 µM, first compound 0.00949 µM) was 51.4%; the viability, T/C (second compound 10 µM, first compound 0.03 µM) was 17.4%; the viability, T/C (second compound 10 µM, first compound 0.0949 µM) is 14.1%; the viability, T/C (second compound 10 µM, first compound 0.3 µM) is 14.8%; the viability, T/C (second compound 10 µM, first compound 0.949 µM) was 14.6%; the viability, T/C (second compound 10 µM, first compound 3 µM) was 14.5%.
Turning to `COc1cccc2c1C(=O)c1c(O)c3c(c(O)c1C2=O)CC(O)(C(=O)CO)CC3OC1CC(N)C(O)C(C)O1` (stereo not drawn), the viability, T/C reads like this: (compound 0.0316 µM) 78% and 71.8% and 78.2%; (compound 0.1 µM) 60.5% and 38.2% and 54.6%; (compound 0.316 µM) 32.8% and 29.6% and 32.9%; (compound 1 µM) 8.2% and 10% and 11.1%; (compound 3.16 µM) 1.38% and 0.34% and 0.33%; (compound 10 µM) 0.57% and 0.47% and 0.49%. The IC50 (curve of compound) was 0.155 µM and 0.0736 µM and 0.132 µM.
Turning to `CC1COCCN1c1cc(C2(O)CC3CCC(C2)O3)c2cnn(-c3ccn[nH]3)c2n1` (stereo not drawn), the viability, T/C (compound 0.0316 µM) was 92% and 93.4% and 87%; the viability, T/C (compound 0.1 µM) was 84.8% and 75% and 73.3%; the viability, T/C (compound 0.316 µM) was 44.9% and 50.6% and 53.1%; the viability, T/C (compound 1 µM) was 28.2% and 28.1% and 26%; the viability, T/C (compound 3.16 µM) is 21.8% and 18.4% and 19.3%; the viability, T/C (compound 10 µM) is 6.59% and 6.67% and 8.27%. In addition, the IC50 (curve of compound) was 0.321 µM and 0.329 µM and 0.342 µM.
On to `CC(=O)O[C@H]1C(=O)[C@@]2(C)[C@H]([C@H](OC(=O)c3ccccc3)[C@]3(O)C[C@H](OC(=O)[C@H](O)[C@@H](NC(=O)c4ccccc4)c4ccccc4)C(C)=C1C3(C)C)[C@]1(OC(C)=O)CO[C@@H]1C[C@@H]2O`, for which the viability, T/C is, setting by setting: (compound 0.00949 µM) 58.2% and 63% and 74.9%; (compound 0.03 µM) 20.7% and 18.6% and 27.6%; (compound 0.0949 µM) 13.3% and 12.8% and 9.47%; (compound 0.3 µM) 11.7% and 11.9% and 11.2%; (compound 0.949 µM) 15.4% and 12.2% and 9.82%; (compound 3 µM) 13.5% and 12.8% and 9.87%. For the same compound, for the setting “curve of compound”, the concentration for half-maximal inhibition (IC50) is 0.0122 µM and 0.0133 µM and 0.0174 µM.
